Laboratory results reported in PubChem BioAssay (NCI).
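How tested: cells in 96-well plates exposed to compound for 48 hours at five concentrations. The concentration for full growth arrest is given as TGI.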

Tests used:
Test in all cases: growth of human tumour cells (NCI), 48 h
[1] = test system: HCT-116 colon
[2] = test system: CCRF-CEM leukemia
[3] = test system: K-562 leukemia
[4] = test system: HCC-2998 colon
[5] = test system: SF-268 CNS
[6] = test system: OVCAR-5 ovarian
[7] = test system: UACC-62 melanoma
[8] = test system: 786-0 renal
[9] = test system: SK-MEL-28 melanoma
[10] = test system: LXFL 529 NSCLC
[11] = test system: UO-31 renal
[12] = test system: ACHN renal
[13] = test system: U251 CNS
[14] = test system: HL-60(TB) leukemia
[15] = test system: NCI-H460 lung
[16] = test system: LOX IMVI melanoma
[17] = test system: DLD-1 colon
[18] = test system: M14 melanoma
[19] = test system: NCI-H522 lung
[20] = test system: A498 renal
[21] = test system: SW-620 colon
[22] = test system: CAKI-1 renal
[23] = test system: SF-539 CNS
[24] = test system: EKVX NSCLC
[25] = test system: RXF-631 renal
[26] = test system: OVCAR-8 ovarian
[27] = test system: HT29 colon
[28] = test system: IGROV1 ovarian
[29] = test system: A549 NSCLC
[30] = test system: DMS 273 small cell lung
[31] = test system: RPMI-8226 leukemia
[32] = test system: UACC-257 melanoma
[33] = test system: HOP-62 NSCLC
[34] = test system: RXF 393 renal
[35] = test system: MALME-3M melanoma
[36] = test system: SNB-75 CNS
[37] = test system: MOLT-4 leukemia
[38] = test system: TK-10 renal
[39] = test system: XF 498 CNS
[40] = test system: NCI-H23 lung
[41] = test system: SK-MEL-5 melanoma
[42] = test system: OVCAR-3 ovarian
[43] = test system: SN12C renal
[44] = test system: KM12 colon
[45] = test system: SF-295 CNS
[46] = test system: SK-MEL-2 melanoma
[47] = test system: OVCAR-4 ovarian
[48] = test system: SNB-78 CNS
[49] = test system: HCT-15 colon

Q: `CC12CCCCC1C(=O)C2(Cl)Cl` (centres undefined) was tested. Which TGI [1] did it give?
A: The TGI was 3.51 µM.

Q: What about the TGI [2] of the same compound?
A: Its TGI is 5.45 µM.

Q: What about the TGI [3] of the same compound?
A: Its TGI is 4.37 µM.

Q: And the TGI [4]?
A: The TGI was 4.22 µM.

Q: And the TGI [5]?
A: The TGI was 14.6 µM.

Q: And the TGI [6]?
A: The TGI was 8.96 µM.

Q: And the TGI [7]?
A: Its TGI is 6.09 µM.

Q: What about the TGI [8] of the same compound?
A: The TGI was 4.73 µM.

Q: What about the TGI [9] of the same compound?
A: Its TGI is 4.18 µM.

Q: And the TGI [10]?
A: Its TGI is 6 µM.

Q: And the TGI [11]?
A: The TGI was 5.23 µM.

Q: What about the TGI [12] of the same compound?
A: Its TGI is 5.91 µM.

Q: And the TGI [13]?
A: Its TGI is 5.56 µM.

Q: And the TGI [14]?
A: The TGI was 3.88 µM.

Q: What about the TGI [15] of the same compound?
A: Its TGI is 6.37 µM.

Q: What about the TGI [16] of the same compound?
A: The TGI was 6.1 µM.

Q: And the TGI [17]?
A: The TGI was 6.22 µM.

Q: And the TGI [18]?
A: Its TGI is 5.32 µM.

Q: And the TGI [19]?
A: The TGI was 4.61 µM.

Q: And the TGI [20]?
A: The TGI was 12.7 µM.

Q: What about the TGI [21] of the same compound?
A: The TGI was 4.47 µM.

Q: What about the TGI [22] of the same compound?
A: The TGI was 10.1 µM.

Q: And the TGI [23]?
A: Its TGI is 5.18 µM.

Q: What about the TGI [24] of the same compound?
A: The TGI was 11 µM.

Q: What about the TGI [25] of the same compound?
A: The TGI was 5 µM.

Q: And the TGI [26]?
A: The TGI was 5.16 µM.

Q: What about the TGI [27] of the same compound?
A: Its TGI is 3.06 µM.

Q: And the TGI [28]?
A: Its TGI is 9.95 µM.

Q: And the TGI [29]?
A: Its TGI is 11.2 µM.

Q: And the TGI [30]?
A: Its TGI is 5.4 µM.

Q: What about the TGI [31] of the same compound?
A: Its TGI is 3.79 µM.

Q: And the TGI [32]?
A: Its TGI is 5.63 µM.

Q: And the TGI [33]?
A: Its TGI is 4.92 µM.

Q: And the TGI [34]?
A: The TGI was 14.3 µM.

Q: What about the TGI [35] of the same compound?
A: The TGI was 4.19 µM.

Q: And the TGI [36]?
A: Its TGI is 18.3 µM.

Q: And the TGI [37]?
A: Its TGI is 5.44 µM.

Q: What about the TGI [38] of the same compound?
A: Its TGI is 11.3 µM.

Q: And the TGI [39]?
A: The TGI was 4.19 µM.

Q: And the TGI [40]?
A: Its TGI is 8.59 µM.

Q: What about the TGI [41] of the same compound?
A: The TGI was 3.82 µM.

Q: What about the TGI [42] of the same compound?
A: The TGI was 3.58 µM.

Q: What about the TGI [43] of the same compound?
A: Its TGI is 12.3 µM.

Q: And the TGI [44]?
A: The TGI was 4.97 µM.

Q: And the TGI [45]?
A: The TGI was 3.38 µM.

Q: What about the TGI [46] of the same compound?
A: Its TGI is 4.41 µM.

Q: And the TGI [47]?
A: The TGI was 12.5 µM.

Q: And the TGI [48]?
A: The TGI was 17.9 µM.

Q: What about the TGI [49] of the same compound?
A: Its TGI is 11.3 µM.
